Experimental findings from patent US8834843B2, “Imaging method” (GE Healthcare Limited, priority 2007, dated 2014) are described below.

“Also recorded” adds a separate entry of the source. Numbered stars: 1 amine (or outer) side, 2 acyl side, 3 side chain; on linkers, the order of the positions; unused ones are H or OH. Bridge positions count the residues as written; N and C are the ends. Side chains are listed from the residue outwards. Peptide text beside a SMILES is read from it. * marks the point of attachment. X1 = C/C(=N\O)C(C)(C)NCCC(CCNC(C)(C)/C(C)=N/O)CCN*; Glutaryl = O=C(CCCC(=O)[*:2])[*:1]; X2 = NC(=O)COCC(=O)NCCOCCOCCOCCN*

Experiment [1] deals with fibrogenic livers in BDL model. As to the kind of experiment: Liver uptake in BDL vs sham rats at 15 days post-op, vs negative control. It counts as in vivo, rat. As to conditions: one hour post-injection. On the procedure:
On the appropriate day post surgery BDL and sham animals were removed and put under isoflurane anaesthesia, then each animal was injected with 0.3 ml intravenously (i.v.) via tail vein (˜3MBq). At the appropriate time point post-injection of the test item, each animal was re-anaesthetised with isoflurane, sacrificed by cervical dislocation weighed and the weight recorded via a barcode scanning system. Each animal was dissected and the following organs and tissues were removed and counted using BASIL counter protocol 40 or manual counting:
The BDL and sham animal models were set up as described in Example 3. At 15 days post-operatively, one of Compound 3, Compound 8 or a negative control was administered to each animal and liver uptake assessed as described in Example 3.

For experiment [2], the system named is Integrins on Stellate Cell Membranes. As to the kind of experiment: Binding to integrins on stellate cell membranes (125I-echistatin competition). Also noted: species or system rat. As to conditions: cold compound vs 125I-echistatin, 37° C. for 60 min; read-out: Ki in the activated stellate cell membrane assay. On the procedure:
An activated rat liver stellate cell line (immortalized) was a kind gift from Professor Trond Berg at University of Oslo. The cells were grown in 150 mm culture flasks to confluence in Dulbeccos modified Eagels medium containing 10% FBS, glutamine and Penicillin/Streptomycin.
The cells were washed twice in ice cold PBS, pH 7.4, added 10 ml PBS and scraped off with a rubber policeman and transferred to a 50 ml vial on ice. Another 10 ml PBS were added to the flasks, scraped and combined with the first cells. The cells were centrifuged at 2000 rpm at 4° C. for 10 min. The supernatant was poured off and the pellet resuspended in 3 ml PBS. All pellets were combined into one tube, centrifuged as above and the final pellet frozen at −70° C. immediately.
The cell pellets were resuspended in ice-cold homogenization buffer (10 times the amount of cells, for example 2 g pellet to 20 ml homogenization buffer) containing 50 mM Tris-HCl, 5 mM MgCl2, 1 mM EGTA, pH7.4 and in addition protease inhibitors 10 ug/ml leupeptin, 10 ug/ml pepstatin, 200 ug/ml Bacitracin, 0.5 ug/ml aprotinin and 100 uM PMSF. […]
An experiment was set up in a 96-well plate. […] This filterspot was cut off and added a tube that finally was counted in a gamma-counter. […]

Experiment [3] has as its target EA-Hy926 membranes. Kind of experiment: Competitive binding assay with 125I-echistatin on EA-Hy926 membranes. The settings on record: cold compound vs 125I-echistatin, 1 hour at 37° C.; read-out: Ki in the EA-Hy926 membrane assay. More on the design: species or system human. On the procedure: The inhibition constant of Compound 6 was measured using a previously-described membrane binding assay (Indrevoll et al, Bioorg & Med Chem Lett, 2006, 16, 6190-6193).
In brief, membranes from the human endothelial adenocarcinoma cell line EA-Hy926 were prepared and the Kd calculated for the purified membrane fraction. A competitive binding assay was then established to measure inhibition constants for cold Compound 6. ^125I-echistatin was used as the labelled ligand and cold echistatin as a reference standard.
A total of sixteen dilutions of cold test compound (either cold echistatin or cold Compound 6) were prepared and mixed with a combination of ^125I-echistatin and membrane prior to incubation for 1 hour at 37° C. Following several washes, the bound material was harvested on a filter using a Skatron micro harvester. The filterspots were finally excised and counted in a Packard γ-counter.
The inhibition constants for Compound 3 and Compound 8 were determined using the method described in Example 1. FIG. 3 illustrates binding of ^125I-echistatin versus cold Compound 3, Compound 8 and echistatin on EA-Hy926 membranes.

By Ki is commonly meant the equilibrium dissociation constant of an inhibitor or competing ligand from its target. For `C/C(=N\O)C(C)(C)NCCC(CCNC(=O)CCCC(=O)NCCCC[C@@H]1NC(=O)CSC[C@@H](C(=O)NCCOCCOCCOCCNC(=O)COCC(N)=O)NC(=O)[C@H](Cc2ccccc2)NC(=O)[C@@H]2CSSC[C@H](NC1=O)C(=O)N[C@@H](CCCNC(=N)N)C(=O)NCC(=O)N[C@@H](CC(=O)O)C(=O)N2)CCNC(C)(C)/C(C)=N/O` (stereo partly drawn) [Compound 8] ({CH2CO}-K([Glutaryl-X1])CRGDCFC-X2; disulfide 2-6; thioether N-8), the “Liver retention/uptake in BDL compared to sham animals (in words)” value in experiment [1] is listed as “significantly higher liver uptake; also recorded: significantly retained”. The Ki in experiment [2] turned out to be 56 nM; in experiment [3], 6 nM.
